From patent US6635634B2, “Propanolamine derivatives” (Fujisawa Pharmaceutical Co., Ltd., priority 1998, dated 2003)

Tests used:
[1] = test system: anesthetized dog; test: Effect on the increase in intravesical pressure induced by carbachol in anesthetized dog (Test 1); format: in vivo; conditions: for Increase in intravesical pressure (mmHg): 0.01 mg/kg intravenously 5 minutes before carbachol (1.8 μg/kg); for effect on the increase in intravesical pressure induced by carbachol (in words): anesthetized dog, 0.01 mg/kg intravenously
Description: Effect on the increase in intravesical pressure induced by carbachol in anesthetized dog
Female Beagle dogs weighing 8.0-15.0 kg were fasted for 24 hours and maintained under halothane anesthesia. A 12F Foley catheter was lubricated with water soluble jelly, inserted into the urethral orifice and advanced approximately 10 cm until the balloon tip was placed well inside the bladder. The balloon was then inflated with 5 ml of room air and catheter slowly withdrawn just part the first resistance that is felt at the bladder neck. Urine was completely drained out throught the catheter, and 30 ml of biological saline was infused. The catheter was connected to pressure transducer, and intravesical pressure was continuously recorded. The test compound was injected intravenously at 5 minutes before the administration of carbachol (1.8 μg/kg).
According to a similar manner to that of Test 1 described before, the effects of the present compounds on the intravesical pressure were evaluated.

[2] = test system: anesthetized rat; test: Effect on rhythmic contraction of bladder in anesthetized rat (Test 3); format: in vivo; conditions: dose of 0.1 mg/kg intravenously
Description: Effect on Rhythmic Contraction of Bladder in Anesthetized Rat
Male S.D. rats, aged 7-8 weeks, were anesthetized with urethane (1.2 g/kg, ip) and supine on a board. After a midline incision in the abdomen, the bladder was exposed. Balloon catheter, which was used to measure the intravesical pressure, was inserted into the bladder through a small incision at the apex of the bladder dome. The balloon was then inflated with distilled water and the balloon port of the catheter was connected to pressure transducer. Rhythmic contraction of bladder induced by increase intravesical pressure to 10 mmHg. The test compound was administered intravenously via femoral vein.

[3] = test system: anesthetized rat; test: Effect on cystometrogram in anesthetized rat (Test 2); format: in vivo; conditions: for bladder capacity (relative % of before value): 0.01 mg/kg intravenously, N = 5
Description: Effect on Cystometrogram in Anesthetized Rat Male S.D. rats, aged 7-9 weeks, were anesthetized with urethane (1.2 g/kg, sc) and supine on a board. After a midline incision in the abdomen, the bladder was exposed. Polyethylene catheters, which were used to measure the intravesical pressure and to infuse saline, were inserted into the bladder through a small incision at the apex of the bladder dome. The bladder catheters were connected to an infusion pump and pressure transducer respectively. Saline was infused a rate of 5.0 ml/hr for 1 hour. Cystometrography was performed at 15 minutes intervals for 1 hour. The bladder capacity (volume) was calculated from the time required to fill the bladder. The test compound was administered intravenously via femoral vein.

With `Cl.O=c1[nH]c2cccc(OCC(O)CNC3CCCc4cc(O)ccc4C3)c2[nH]1` (stereo not drawn) the melting point was 100.5 °C (dec.).

For “N-butyl-2-[8-[[(2S)-2-hydroxy-3-[4-hydroxy-3-methanesulfonylamino]phenoxypropyl]amino]-6,7,8,9-tetrahydro-5H-benzocyclohepten-2-yloxy]acetamide hydrochloride [Example 155]”, the “ED50 (effect on the intravesical pressure)” value ([1]; similar manner to Test 1, anesthetized dog) was 0.0108 mg/kg.

For `O=c1n(CCCC2CCCC2)nnn1-c1ccc(S(=O)(=O)Nc2ccc(CCNC[C@H](O)c3cccnc3)cc2)cc1` [Test Compound (2), N-[4-[2-[2(R)-Hydroxy-2-(pyridin-3-yl)ethylamino]ethyl]-phenyl]-4-[4-(3-cyclopentylpropyl)-5-tetrazolon-1-yl]-benzenesulfonamide], the “Increase in intravesical pressure (mmHg)” value ([1]; Control 5.0 ± 1.2, N = 4, P<0.05 vs Control) was 2.3 ± 1.5 mmHg and the “effect on the increase in intravesical pressure induced by carbachol (in words)” value (“effect on the increase” for short) [1] was “inhibited the increase in intravesical pressure induced by carbachol”.

For `O=c1[nH]c2cccc(OCC(O)CN(Cc3ccccc3)C3CCCc4cc(O)ccc4C3)c2[nH]1` (stereo not drawn) [Example 11, 1-[N-benzyl-N-(6,7,8,9-tetrahydro-2-hydroxy-5H-benzocyclohepten-6-yl)amino]-3-(1,3-dihydro-2-benzoimidazolon-4-yloxy)-2-propanol], the melting point was 111 to 133 °C (dec.).

In the case of `Cl.Oc1cccc2c1CCCC(NC[C@H](O)COc1ccccc1)C2` (stereo partly drawn), the melting point is reported as 73 to 84 °C (dec.).

For `COC(=O)COc1ccc(C[C@@H](C)NC[C@H](O)c2cccc(Cl)c2)cc1` [compound (5), Methyl 4-[2(R)-[2-(3-chlorophenyl)-2(R)-hydroxyethyl-amino]propyl]phenoxyacetate], the “effect on contractile force of bladder (in words)” value [2] was “decreased in contractile force of bladder”.

With `COc1ccc(C(Cc2ccccc2)NC[C@H](O)c2ccc(O)c(NS(C)(=O)=O)c2)cc1OC` (stereo partly drawn) [Test Compound (1), N-[5-[2-[l-(3,4-Dimethoxyphenyl)-2-phenylethylamino]-1(R)-hydroxyethyl]-2-hydroxyphenyl]methanesulfonamide] the “Increase in intravesical pressure (mmHg)” value ([1]; Control 5.0 ± 0.9, N = 3, P<0.01 vs Control) was 1.8 ± 0.3 mmHg and the “effect on the increase” value [1] was “inhibited the increase in intravesical pressure induced by carbachol”.

For `CS(=O)(=O)Nc1cc(C(O)CNCCOc2ccc3c(c2)[nH]c2ccccc23)ccc1O.Cl` (stereo not drawn) [Test Compound (3), N-[5-[2-[2-(9H-Carbazol-2-yloxy)ethylamino]-1-hydroxyethyl]-2-hydroxyphenyl]methanesulfonamide hydrochloride], the “Increase in intravesical pressure (mmHg)” value ([1]; Control 5.0 ± 0.5, N = 3, P<0.01 vs Control) was 1.7 ± 0.6 mmHg and the “effect on the increase” value [1] was “inhibited the increase in intravesical pressure induced by carbachol”.

In the case of `CCOC(=O)COc1ccc2c(c1)C[C@@H](NC[C@H](O)c1cccc(Cl)c1)CC2.Cl` [compound (4), 2(S)-[ (7-Ethoxycarbonylmethoxy-1,2,3,4-tetrahydro-naphthalen-2-yl)amino]-1(R)-(3-chlorophenyl)ethanol hydrochloride], the “bladder capacity (relative % of before value)” value ([3]; time 0-15 minutes, vehicle 128) is reported as 152%, the “bladder capacity (relative % of before value)” value ([3]; time 15-30 minutes, vehicle 111) is reported as 146% and the “bladder capacity (relative % of before value)” value ([3]; time 30-45 minutes, vehicle 114) is reported as 143%. For the same molecule, the “bladder capacity (relative % of before value)” value ([3]; time 45-60 minutes, vehicle 104) was 151% and the “effect on bladder capacity (in words)” value ([3]; dose of 0.01 mg/kg intravenously) was “increased in bladder capacity”.

In the case of `Cl.Oc1cc2c(cc1Cl)CC(N(Cc1ccccc1)C[C@H](O)COc1ccccc1)CCC2` (stereo partly drawn), the melting point is reported as 94 to 99 °C (dec.).

In the case of `Cl.Oc1ccc2c(c1)CCCC(NC[C@H](O)COc1ccccc1)C2` (stereo partly drawn), the melting point is reported as 53.5 °C (dec.).
